Here are results for 3 molecules from patent US20150335692A1, “ORAL PREPARATION, INJECTION PREPARATION, EXTERNAL SKIN PREPARATION AND COSMETIC METHOD FOR PREVENTING OR IMPROVING WRINKLES” (Shiseido Company, Ltd., priority 2008, published 2015).

Structures are written as SMILES.

In experiment [1] the test system is basement membrane heparan sulfate chains. The experiment in a line: Immunostaining of epidermal basement membrane heparan sulfate chains in skin of fine wrinkle model. Format: in vivo. As to conditions: skin coated with 1 mM compound versus 50% ethanol solvent control. The text has this: Next, heparan sulfate chains were immunostained for the skin after 2 days, 1 week and 2 weeks, and the staining results are shown in FIG. 4. Although staining of basement membrane heparan sulfate chains decreased from 2 days to 1 week in skin of the solvent control, stainability of basement membrane heparan sulfate chains was protected by application of suramin.
Next, heparan sulfate chains and perlecan core protein in the skin were immunostained, and the staining results are shown in FIG. 6. Although staining of basement membrane heparan sulfate chains decreased considerably for the solvent control, stainability of basement membrane heparan sulfate chains was protected in the 1-[4-(1H-benzoimidazol-2-yl)-phenyl]-3-[4-(1H-benzoimidazol-2-yl)-phenyl]-urea application group.

In a further experiment the test system is fine wrinkle model. Put plainly: Anti-wrinkle effects in fine wrinkle model (visual wrinkle score). Type of experiment: in vivo. As to conditions: 1 mM in 50% aqueous ethanol, 100 μl applied to skin three times a week for two weeks; scored two weeks later; higher scores indicate deeper wrinkles. How it is done:
The anti-wrinkle effects of the heparanase inhibitor, suramin, were assessed using a fine wrinkle model (Non-Patent Document 2).
Suramin was dissolved in 50% aqueous ethanol solution to a concentration of 1 mM and applied in 100 μl aliquots to skin of the fine wrinkle model three times a week for a period of two weeks during which time fine wrinkles are formed. A 50% aqueous ethanol solution was used as a solvent control.
The formation of wrinkles two weeks later was scored by visual evaluation. Wrinkle formation was scored in increments of 0.5 based on evaluation criteria consisting of: no wrinkles: 0, slight wrinkles: 1, obvious wrinkles: 2 and deep wrinkles: 3. Higher scores indicate deeper wrinkles. In contrast to the mean value of the scores of the solvent control being 0.78, that for suramin was 0.31, thereby indicating significant wrinkle inhibitory effects as compared with the solvent control. Namely, the application of suramin at 1 mM significant inhibited wrinkle formation as compared with 50% ethanol applied as a solvent control. […]
The formation of wrinkles two weeks later was scored by visual evaluation. Wrinkle formation was scored in increments of 0.5 based on evaluation criteria consisting of: no wrinkles: 0, slight wrinkles: 1, obvious wrinkles: 2 and deep wrinkles: 3. […]

A further experiment addresses T1, heparanase (Homo sapiens, UniProt Q9Y251).
T1 construct: the resulting supernatant was used as a cell extract; endogenous in cells; host or cells: A431 cells (lysate supernatant)
T1 sequence (Q9Y251 158-543 limits assumed): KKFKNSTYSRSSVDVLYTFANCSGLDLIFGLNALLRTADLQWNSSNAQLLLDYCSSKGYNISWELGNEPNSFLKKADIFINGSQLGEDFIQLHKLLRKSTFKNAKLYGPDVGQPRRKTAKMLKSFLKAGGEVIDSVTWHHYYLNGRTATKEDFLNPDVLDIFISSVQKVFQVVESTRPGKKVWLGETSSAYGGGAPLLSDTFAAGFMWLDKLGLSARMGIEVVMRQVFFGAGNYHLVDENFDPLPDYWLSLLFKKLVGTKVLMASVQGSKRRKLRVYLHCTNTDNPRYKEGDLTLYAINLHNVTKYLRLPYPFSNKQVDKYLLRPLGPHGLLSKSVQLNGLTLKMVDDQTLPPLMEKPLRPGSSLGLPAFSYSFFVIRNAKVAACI
T1 sequence (Q9Y251 36-109 limits assumed): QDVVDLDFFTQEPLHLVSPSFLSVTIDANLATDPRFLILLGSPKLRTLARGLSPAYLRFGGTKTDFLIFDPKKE
The experiment in a line: Primary evaluation: heparanase activity inhibition, A431 cell extract on biotinylated heparan sulfate-immobilized plate. Format: biochemical. The conditions noted are these: 2 hours at 37° C., DMSO control. The source says:
As will be described in detail in the following examples, primary evaluation of heparanase activity can be carried out by, for example, immobilizing biotinylated heparan sulfate in a 96-well plate, allowing the heparanase to act in the presence of a pharmaceutical preparation or herbal medicine, and evaluating the activity of heparanase as the amount of the decrease in biotinylated heparan sulfate by allowing peroxidase-labeled avidin to act thereon and developing the resulting color. […] Secondary evaluation can be carried out by using HT1080 cells expressing heparanase. […] Therefore, heparanase inhibitory activity can be evaluated on the basis of the degree of migration (recovery) at the scratched site by adding an evaluation reagent.
A431 cells (invasive human epithelial carcinoma cells) were cultured in DMEM medium containing 10% serum. […] The amount of protein in the cell extract was measured with a BCA Protein Assay Kit (Pierce, CA46141). […]
Heparanase activity was calculated from a calibration curve of the A431 cell extract, and inhibition rate (%) was indicated as a relative value to a reference (control) to which the cell extract was not added. […]
The plant extracts were evaluated for heparanase inhibitory effects in accordance with the aforementioned primary and secondary evaluation methods using sample solutions of the plant extracts instead of 4-(1H-benzoimidazol-2-yl)-phenylamine.

In a further experiment the test system is HT1080 cells. The experiment in a line: Secondary evaluation: wound healing assay using HT1080 cells. Type of experiment: cell-based. The conditions noted are these: HT1080 cells, 1, 10, 100 μM, DMSO control. The text has this: As will be described in detail in the following examples, primary evaluation of heparanase activity can be carried out by, for example, immobilizing biotinylated heparan sulfate in a 96-well plate, allowing the heparanase to act in the presence of a pharmaceutical preparation or herbal medicine, and evaluating the activity of heparanase as the amount of the decrease in biotinylated heparan sulfate by allowing peroxidase-labeled avidin to act thereon and developing the resulting color. […] Secondary evaluation can be carried out by using HT1080 cells expressing heparanase. When HT1080 cells are scratched after having been cultured to confluency, cells are known to migrate in a heparanase activity-dependent manner (see Ishida, K., et al., Mol. Cancer Ther., 2004, 3(9): 1069-1077 (Non-Patent Document 4)). Therefore, heparanase inhibitory activity can be evaluated on the basis of the degree of migration (recovery) at the scratched site by adding an evaluation reagent.
HT1080 cells were inoculated into a 6-well plate at 500,000 cells/well, and the medium was replaced with that containing each drug 24 hours later followed by scratching in the vertical direction with a 1000 μL tip. Micrographs were taken 6 hours later and changes at the scratched site were observed. […] DMSO was allowed to act as a control instead of the candidate drugs.

Regarding `Cc1ccc(C(=O)Nc2ccc(S(=O)(=O)O)c3cc(S(=O)(=O)O)cc(S(=O)(=O)O)c23)cc1NC(=O)c1cccc(NC(=O)Nc2cccc(C(=O)Nc3cc(C(=O)Nc4ccc(S(=O)(=O)O)c5cc(S(=O)(=O)O)cc(S(=O)(=O)O)c45)ccc3C)c2)c1` [suramin], the “stainability of basement membrane heparan sulfate chains (immunostaining)” value in experiment [1] is reported as “protected”. Further, in the experiment with fine wrinkle model, the “mean value of wrinkle formation scores (visual evaluation; 0 no wrinkles to 3 deep wrinkles)” value was 0.31.

`Nc1ccc(-c2nc3ccccc3[nH]2)cc1` [4-(1H-benzoimidazol-2-yl)-phenylamine] showed an IC50 at heparanase of 256 µM. For the same molecule, the “cell migration activity at scratched site” value with HT1080 cells is recorded as “decreased in a concentration-dependent manner”.

Consider `O=C(Nc1ccc(-c2nc3ccccc3[nH]2)cc1)Nc1ccc(-c2nc3ccccc3[nH]2)cc1` [1-[4-(1H-benzoimidazol-2-yl)-phenyl]-3-[4-(1H-benzoimidazol-2-yl)-phenyl]-urea], for which, in experiment [1], the “stainability of basement membrane heparan sulfate chains (immunostaining)” value was “protected”. Further, the “mean value of wrinkle formation scores (visual evaluation; 0 no wrinkles to 3 deep wrinkles)” value in the experiment with fine wrinkle model was 0.36.
